Patent US12558325B2, “Methods for improving neurological diseases and disorders” (CuraSen Therapeutics, Inc., priority 2019, dated 2026)
Entries after “also recorded” stand apart in the source; their conditions may differ.

Experiments:
[1] = system: patients; assay: Cerebral blood flow relative to baseline after a single dose (Example 1); assay type: in vivo, human
[2] = system: healthy subjects; assay: ASL MRI cerebral perfusion before and after a single dose (Example 3); assay type: in vivo, human
Description: In a clinical study, healthy subjects were administered doses of clenbuterol ranging from 20 to 160 μg and ASL MRI was conducted prior to and after dosing with an objective to ascertain whether this neuroimaging method enables the detection of a clinically relevant CNS signal.
In a region of interest (ROI) analysis focusing on the hippocampus, which is well understood to be affected in neurodegenerative disorders, a single dose of 80 μg of clenbuterol causes a robust increase in perfusion (see FIG. 7). […] Taken together with other cohorts in which ASL MRI was conducted, a clear dose response relationship is seen between dose of clenbuterol and cerebral perfusion (FIG. 8). […] Our hypothesis is that by improving cerebral perfusion, particularly in areas of the brain that are relevant for symptoms that are commonly found in neurodegenerative diseases such as PD and AD, the administration of a β2-AR agonist will have a positive effect on clinically relevant symptoms such as memory and cognition.

[3] = system: healthy subjects; assay: Adaptive tracking test (visuomotor coordination and vigilance); assay type: in vivo, human; conditions: single dose of 160 μg clenbuterol
Text: Adaptive tracking measures visuomotor coordination and vigilance. In this test, the subject uses a joystick to move a small dot so that it stays within a continuously moving circle on a computer screen (Boland 1984). During the test, the speed of the circle is adjusted in response to the subject's ability to keep the dot in the circle, ensuring that the test is adapted to the individual subject. […] The improvement shown by subjects is in the same range as that seen with subjects treated with the acetylcholinesterase inhibitor donepezil, which is in clinical use for the treatment of mild to moderate AD (Groeneveld 2016).

[4] = system: subjects; assay: Visual verbal learning test (VVLT); assay type: in vivo, human; conditions: crossover study; for effect on the VVLT (learning and memory): 3 agents plus placebo
Description: The visual verbal learning test (VVLT) is a test for learning and memory (de Haas 2009). Subjects are presented 30 words on a screen, one at a time, for 1 second with a 1-second interval between words over a total of 1 minute. This is repeated in 3 trials. After each trial, subjects are asked to recall as many words as they can. After the third trial, there is a delay of 2.5 hours and subjects are then tested once for delayed recall. […] Since this was a crossover study, everyone who completed Part A was dosed with the 3 agents plus placebo.

[5] = system: Ts65Dn mice; conditions: increasing brain NE levels; cited from earlier work

CC(C)(C)NCC(O)c1cc(Cl)c(N)c(Cl)c1 (stereo not shown) [clenbuterol]
cerebral blood flow (CBF) relative to the baseline ([1]; single dose of clenbuterol 160 μg): robust global increase; also recorded: positive increase
cerebral blood flow (CBF) relative to the baseline ([1]; single dose of clenbuterol ranging from 30 to 160 μg, tracked over 3 days): robust global increase
cerebral perfusion increase as measured by CBF ([2]; clenbuterol dose of 40 μg): minimal increase
cerebral perfusion increase as measured by CBF ([2]; clenbuterol doses below 30 μg): do not produce significant cerebral perfusion increases
improvements in perfusion in brain areas relevant to neurodegenerative disorders ([2]; doses of 80 and 160 μg clenbuterol): ~25%
global perfusion ([2]; doses of 80 and 160 μg clenbuterol, ASL MRI): robust, global increase
increase in hippocampal perfusion, on average ([2]; single dose of 80 μg clenbuterol, 6 healthy subjects aged 44 to 52, ROI hippocampus): 25%
cerebral perfusion (global; hippocampus, thalamus, cortex) ([2]; single dose of 160 μg clenbuterol, ASL MRI): robust global increase
performance in adaptive tracking (percent time dot kept within moving circle) [3]: improved
cognition as measured by adaptive tracking and word recall ([3]; healthy subjects, preliminary data): improves cognition
VVLT performance, immediate recall (Trial 1) [4]: improved performance
effect on the VVLT (learning and memory) [4]: positive effects
VVLT performance, delayed recall ([4]; recall after delay of 2.5 hours): improved performance

CC(C)NCC(O)COc1cccc2[nH]ccc12 (stereo not shown) [pindolol]
effect on the VVLT (learning and memory) [4]: detrimental effect

CC(C)(C)NCC(O)c1ccc(O)c(CO)c1 (stereo not shown) [salbutamol]
effect on the VVLT (learning and memory) [4]: positive effects

N[C@H](C(=O)O)[C@H](O)c1ccc(O)c(O)c1 [L-DOPS, L-threo-3,4-dihydroxyphenylserine]
contextual learning [5]: restored contextual learning
